Data set [1] is described as follows: Selectivity index, ratio of CC50 for cytotoxicity against human HepG2 cells to IC50 for antimalarial activity against chloroquine-sensitive Plasmodium falciparum 3D7 infected in human erythrocytes assessed as reduction in parasite growth incubated for 72 hrs by SYBR green dye fluorimetric assay. Type of data set: toxicity, cell-based. The note with it: read-out: Ratio CC50/IC50.

The subject of data set [2] is Plasmodium falciparum. The data set is described as follows: Antimalarial activity against chloroquine-sensitive Plasmodium falciparum 3D7 infected in human erythrocytes assessed as reduction in parasite growth incubated for 72 hrs by SYBR green dye fluorimetric assay. Type of data set: functional, organism-based. The note with it: 3D7, Erythrocyte.
The nature of data set [3]: Cytotoxicity against human HepG2 cells. In kind it is toxicity, cell-based.
Data set [4] can be described thus: Resistance index, ratio of IC50 for antimalarial activity against […] infected in human erythrocytes to IC50 for antimalarial activity against chloroquine-sensitive Plasmodium falciparum 3D7 infected in erythrocytes. In kind it is functional.
The subject of data set [5] is Plasmodium falciparum. The data set is described as follows: Antimalarial activity against […] infected in human erythrocytes assessed as reduction in parasite growth incubated for 72 hrs by SYBR green dye fluorimetric assay. Type of data set: functional, organism-based. The note with it: K1, Erythrocyte.

The record followed here is ChEMBL document CHEMBL6177959, “Design, synthesis and evaluation of novel carboline-triazole hybrids as promising antimalarial agents” (Eur J Med Chem, 2025).

Each structure is given as a SMILES string.

A word on the IC50: it is the concentration at which inhibition is half-maximal. Broadly, the CC50 is the concentration at which the toxic effect on the cells reaches its halfway point.

As for `O=C(NCc1cn(-c2ccccc2)nn1)c1cc2c([nH]c3ccccc32)c(-c2ccccc2)n1`, the selectivity ratio at 72 h in data set [1] is 75.3. In addition, in the data set on Plasmodium falciparum [2], the concentration for half-maximal inhibition (IC50) turned out to be 2.92 µM. In data set [3], this molecule displayed a cytotoxic concentration (CC50) of 220 µM.

Consider `O=C(NCc1cn(-c2ccc(F)cc2)nn1)c1cc2c([nH]c3ccccc32)c(-c2cccc(Cl)c2)n1`, for which, in data set [1], the selectivity ratio at 72 h turned out to be 553. Moreover, the “Ratio IC50” value in data set [4] amounted to 1.61. For the same molecule, the IC50 worked out at 0.41 µM in the data set with Plasmodium falciparum [2] and 0.66 µM in the data set with Plasmodium falciparum [5]. This molecule also yielded a CC50 in data set [3] of 227 µM.

For the molecule `O=C(NCc1cn(-c2ccc(F)cc2)nn1)c1cc2c([nH]c3ccccc32)c(-c2ccc(Cl)cc2Cl)n1`, the selectivity ratio at 72 h in data set [1] was 90.5. The concentration for half-maximal inhibition (IC50) in the data set with Plasmodium falciparum [2] came to 1.84 µM. The midpoint of cytotoxicity in data set [3], the CC50, lay at 167 µM.

For `COc1ccc(-c2nc(C(=O)NCc3cn(-c4ccc(F)cc4)nn3)cc3c2[nH]c2ccccc23)cc1`, the selectivity ratio at 72 h in data set [1] was 85.5. In the data set with Plasmodium falciparum [2], the half-inhibitory concentration (IC50) amounted to 1.91 µM. The molecule further returned a CC50 in data set [3] of 163 µM.

With `O=C(NCc1cn(-c2cccc(C(F)(F)F)c2)nn1)c1cc2c([nH]c3ccccc32)c(-c2ccc(Cl)cc2Cl)n1`, the selectivity ratio at 72 h in data set [1] was 150. The 50% inhibitory concentration (IC50) in the data set on Plasmodium falciparum [2] is 1.3 µM. Moreover, the half-maximal cytotoxic concentration (CC50) in data set [3] came to 195 µM.

In the case of `O=C(NCc1cn(-c2cccc(C(F)(F)F)c2)nn1)c1cc2c([nH]c3ccccc32)c(-c2ccccc2)n1`, the selectivity ratio at 72 h in data set [1] turned out to be 136. In addition, the IC50 in the data set on Plasmodium falciparum [2] came to 1.47 µM. Also, in data set [3], the CC50 is 200 µM.

In the case of `COc1ccc(-n2cc(CNC(=O)c3cc4c([nH]c5ccccc54)c(-c4ccccc4)n3)nn2)cc1`, the selectivity ratio at 72 h in data set [1] came to 64. Besides, in the data set with Plasmodium falciparum [2], the IC50 came out at 3.05 µM. Further, in data set [3], the CC50 was determined as 195 µM.

Turning to `O=C(NCc1cn(-c2ccc(F)cc2)nn1)c1cc2c([nH]c3ccccc32)c(-c2ccccc2)n1`, the selectivity ratio at 72 h in data set [1] was determined as 148. Moreover, the IC50 in the data set on Plasmodium falciparum [2] was determined as 1.4 µM. In data set [3], this molecule registered a CC50 of 207 µM.

On to `O=C(NCc1cn(-c2cc(C(F)(F)F)cc(C(F)(F)F)c2)nn1)c1cc2c([nH]c3ccccc32)c(-c2ccc(Cl)cc2Cl)n1`, for which, in data set [1], the selectivity ratio at 72 h stood at 120. Further, in the data set with Plasmodium falciparum [2], the concentration for half-maximal inhibition (IC50) was 2.5 µM. The CC50 in data set [3] came out at 155 µM.

With `Cc1ccc(-c2nc(C(=O)NCc3cn(-c4ccc(F)cc4)nn3)cc3c2[nH]c2ccccc23)cc1`, the selectivity ratio at 72 h in data set [1] was 91.4. Further, the concentration for half-maximal inhibition (IC50) with Plasmodium falciparum [2] worked out at 1.94 µM. In addition, it took 177 µM to reach half-maximal cytotoxicity in data set [3] (CC50).

Take `Cc1ccc(-n2cc(CNC(=O)c3cc4c([nH]c5ccccc54)c(-c4ccc(Cl)cc4Cl)n3)nn2)cc1`: the selectivity ratio at 72 h in data set [1] was 88.8. Further, in the data set with Plasmodium falciparum [2], the IC50 amounted to 2.5 µM. Moreover, in data set [3], the cytotoxic concentration (CC50) turned out to be 222 µM.

Take `Cc1ccc(-c2cn(-c3ccc(F)cc3)nn2)cc1`: the half-maximal inhibitory concentration (IC50) in the data set with Plasmodium falciparum [2] stood at 3.67 µM. Also, in data set [3], half-maximal cytotoxicity (CC50) was put at 159 µM.

Turning to `O=C(NCc1cn(-c2ccc(OC(F)(F)F)cc2)nn1)c1cc2c([nH]c3ccccc32)c(-c2ccc(Cl)cc2Cl)n1`, the selectivity ratio at 72 h in data set [1] stood at 121. Moreover, the half-inhibitory concentration (IC50) with Plasmodium falciparum [2] turned out to be 1.55 µM. The molecule also yielded a cytotoxic concentration (CC50) in data set [3] of 187 µM.

With `O=C(NCc1cn(-c2ccc(F)cc2F)nn1)c1cc2c([nH]c3ccccc32)c(-c2ccc(Cl)cc2Cl)n1`, in data set [1], the selectivity ratio at 72 h stood at 84.5. Also, the IC50 with Plasmodium falciparum [2] turned out to be 1.7 µM. The same molecule came in with a CC50 in data set [3] of 144 µM.

Consider `C#CCNC(=O)c1cc2c([nH]c3ccccc32)c(-c2ccc(F)cc2)n1`, for which the half-inhibitory concentration (IC50) in the data set on Plasmodium falciparum [2] worked out at 3.46 µM. The midpoint of cytotoxicity in data set [3], the CC50, lay at 167 µM.

`COc1cc([C@@H]2c3cc4c(cc3[C@H](O)[C@H]3COC(=O)[C@H]23)OCO4)cc(OC)c1OC` [PODOFILOX] registered a CC50 in data set [3] of 8.7 µM.

`O=C(NCc1cn(-c2ccccc2)nn1)c1cc2c([nH]c3ccccc32)c(-c2ccc(Cl)cc2Cl)n1`: in data set [1], the selectivity ratio at 72 h turned out to be 105. For the same molecule, the IC50 in the data set with Plasmodium falciparum [2] turned out to be 2.04 µM. The CC50 in data set [3] came to 214 µM.

`COc1ccc(-c2nc(C(=O)NCc3cn(-c4ccccc4)nn3)cc3c2[nH]c2ccccc23)cc1`: the selectivity ratio at 72 h in data set [1] turned out to be 50.6. The concentration for half-maximal inhibition (IC50) in the data set on Plasmodium falciparum [2] was determined as 1.57 µM. Besides, in data set [3], the half-maximal cytotoxic concentration (CC50) was found to be 79.5 µM.
